Test results reported in patent US20140296567A1, “3-HYDROXYANTHRANILIC ACID (3-HAA) THERAPY FOR PREVENTION AND TREATMENT OF HYPERLIPIDEMIA AND ITS CARDIOVASULAR COMPLICATIONS” (priority 2011, published 2014).

Tests used:
[1] = tested on: peritoneal macrophages from LdIr−/− mice; assay: OxLDL uptake by peritoneal macrophages (FITC-oxLDL, flow cytometry); type: cell-based; details: macrophages from mice treated with 3-HAA 200 mg/Kg i.p. for 8 weeks vs PBS; 20 μg/ml FITC-oxLDL, 2 h, 37° C.; P<0.01
Experimental: Peritoneal macrophages from LdIr−/− mice injected with 3-HAA (200 mg/Kg) or PBS (8 weeks treatment) were incubated with FITC-oxLDL at a concentration of 20 μg protein/ml for 2 h at 37° C. The uptake was quantified by flow cytometry. (A) Values given are MFI of FITC-oxLDL, means±SE of triplicate wells for each mouse (n=5 and 6, for 3-HAA or PBS respectively).
LDL was labeled using a modification of a previously described method^32. Briefly, LDL (1.5-2 mg/ml) was dialyzed overnight against 500 mM NaHCO3 pH 9.5. Next, 50 μg of FITC (Sigma-Aldrich, St. Louis, Mo., USA), dissolved in DMSO (1 mg/ml), was added for each mg of protein in LDL, and incubated at room temperature for 2 hours. After incubation conjugates were separated from the free fluorochrome by gel filtration using a PD10 column (GE Healthcare, Uppsala, Sweden) and PBS for elution. FITC conjugation was evaluated by absorption spectroscopy against a FITC standard curve at 495 nm. Protein concentration was determined by Bradford assay (Biorad, Calif., USA). […] The extent of oxidation was evaluated by the TBARS assay, as described^33.
Twenty four hours after the last injection of 3-HAA or PBS, peritoneal macrophages were isolated from LdIr−/− mice by peritoneal lavage with PBS. […] The cells were analyzed on a CyAn™ ADP flow cytometer (Dako, Glostrup, Denmark).

LdIr−/− mice [2] = assay: Plasma lipid analysis (total cholesterol, triglycerides; enzymatic colorimetric kits); type: in vivo; details: 3-HAA 200 mg/kg i.p., 8 weeks, high-fat diet, vs PBS; P<0.01
Experimental: It was hypothesized that induction of protective immunity, with effects on metabolism and inflammation, could be achieved by injecting 3-HAA (200 mg/kg) intraperitoneally, 3 times per week, for 8 weeks. Twelve weeks old LdIr−/− mice were treated with 3-HAA, or PBS as control. The mice were fed a high-fat diet starting 2 days after the first injection until sacrifice, 8 weeks later with CO2.
Plasma cholesterol and triglycerides were measured using enzymatic colorimetric kits according to the manufacturer's protocol. Dissected aortic arches were stained with Sudan IV en face and % lesion area of total vessel area was calculated. Additionally, the effect of 3-HAA on the uptake oxLDL was evaluated in cultures of peritoneal macrophages from 3-HAA or PBS treated mice.
(§1) LdIr−/− mice were bred and housed in the Animal Experimentation Unit at the Center for Molecular Medicine, Karolinska University Hospital. The mice (n=7-10 per group) received 3 intra-peritoneal injections of PBS (200 μl) or 3-HAA (200 mg/Kg in PBS) per week for 6 weeks and 1 injection per week in the following two weeks (total 24 injections) and were sacrificed with CO2. […]
Plasma cholesterol and triglycerides were measured using enzymatic colorimetric kits (Randox Lab. Ltd. Crumin, UK) according to the manufacturer's protocol.

LdIr−/− mice [3] = assay: Lipoprotein profiles of plasma (size fractionation, cholesterol per fraction); type: in vivo; details: 3-HAA 200 mg/kg i.p., 8 weeks
Experimental: (§2) LdIr−/− mice were bred and housed in the Animal Experimentation Unit at the Center for Molecular Medicine, Karolinska University Hospital. The mice (n=7-10 per group) received 3 intra-peritoneal injections of PBS (200 μl) or 3-HAA (200 mg/Kg in PBS) per week for 6 weeks and 1 injection per week in the following two weeks (total 24 injections) and were sacrificed with CO2. The mice were fed a high-fat diet (corn starch, cocoa butter, casein, glucose, sucrose, cellulose flour, minerals and vitamins; 17.2% protein, 21% fat (62.9% saturated, 33.9 unsaturated and 3.4% polyunsaturated), 0.15% cholesterol, 43% carbohydrates, 10% H2O and 3.9% cellulose fibers; R638 Lantmännen, Sweden) starting 2 days after the start of treatment.
Plasma cholesterol lipoprotein profiles were determined using a modification of the method of Okazaki et al^34. Briefly, plasma samples (50 μl) from mice treated with 3-HAA or PBS were fractionated using an HR10/30 Superose 6 column (GE Healthcare, Uppsala, Sweden) and a Discovery BIO GFC-500 as pre-column (5 cm×7.8 i.d.; Supelco®, Sigma-Aldrich, PA, USA) coupled to Prominence UFLC system (Shimadzu, Kyoto, Japan) and equilibrated with Tris-buffered saline, pH 7.4. Fractions of 200 μl were collected using Foxy Jr® fraction collector (Teledyne Isco Inc, NE, USA) and total cholesterol was determined in each fraction using enzymatic colorimetric kit (Randox Lab. Ltd. Crumin, UK).

LdIr−/− mice [4] = assay: Lesion analysis, en face Sudan IV staining of the aortic arch; type: in vivo; details: 3-HAA 200 mg/kg i.p., 8 weeks on high fat diet, vs PBS; P<0.001
Experimental: Twelve weeks old LdIr−/− mice were treated with 3-HAA or PBS as control. The mice were sacrificed after 8 weeks on a Western diet. Dissected arches were stained with Sudan IV en face and % lesion area of total vessel area was calculated using Image J image analysis software (NIH, Bethesda, Md.). The additive area of all the plaques in a given aortic arch was calculated as a percent of the total surface area of the arch. (n=7 and 10, for 3-HAA or PBS respectively). ***) P<0.001.
as §1
En face lipid accumulation was determined in the aortic arch from 3-HAA and PBS treated mice using Sudan IV staining. […] The additive area of all the plaques in a given aortic arch was calculated as a percent of the total surface area of the arch (not including branching vessels). Quantitation of plaques was performed using Image J software (NIH, Bethesda, USA).

[5] = Body weight of treated mice; type: in vivo; details: 3-HAA 200 mg/kg i.p., 8 weeks; data not shown
Experimental: as §2

Nc1c(O)cccc1C(=O)O [3-HAA, 2-Amino-3-hydroxybenzoic acid]
reduced uptake of FITC-oxLDL [1]: approx 79%
reduction in plasma total cholesterol (LdIr−/− mice [2]): approx 50%
reduction in plasma triglycerides (LdIr−/− mice [2]): approx 72%
HDL levels (LdIr−/− mice [3]; high-fat diet, vs PBS): effectively raised HDL levels
LDL/HDL ratio (LdIr−/− mice [3]; mean±SEM, PBS group 2.3±0.24, P<0.05): 1.4±0.16
VLDL/HDL ratio (LdIr−/− mice [3]; mean±SEM, PBS group 4.0±0.55, P<0.01): 1.4±0.31
reduction in atherosclerotic lesion area in en face preparations of the aortic arch (LdIr−/− mice [4]): approximately 90%
effect on body weight [5]: no effect on body weight
